Source: article PMC12084297, “Cytoplasmic connexin43-microtubule interactions promote glioblastoma stem-like cell maintenance and tumorigenicity” (Cell Death & Disease, 2025)

Legend:
PDX GBM22 cells = assay: Gliosphere formation assay, PDX GBM22 cells; assay type: cell-based, human; conditions: 100 μM every other day, 2 weeks
Protocol: (§1) GSCs and PDX GBM22 cells were plated as single cell suspension in low-attachment 96-well plates (GSCs: 100–500 cells per well; GBM22 cells: 500–2000 cells per well), using methods similar to those reported previously. Cells were then treated with peptides every other day. 2 weeks later, gliospheres were observed using phase contrast microscopy on a Revolve microscope (Echo Laboratories). The number of gliospheres was then determined, while the gliosphere size was assessed by diameter measurement. To evaluate stem cell frequency in GSCs, gliosphere formation assay was performed with limiting cell dilutions with cells plated at varying densities in low-attachment 96-well plates. Cells were treated with peptides every other day, and after 2 weeks, gliosphere-positive wells were observed and scored using phase contrast microscopy on a Revolve microscope. The stem cell frequency was analyzed using the online data analysis program ELDA (Extreme Limiting Dilution Analysis).

VTC-037 GSCs = assay: Limiting dilution analysis (ELDA), VTC-037 GSCs; assay type: cell-based, human; conditions: VTC-037, 100 μM every other day, 2 weeks; compared to JM2-scrambled or control
Protocol: as §1
(§2) All quantification was performed on experiments repeated at least three times. Statistical analysis was conducted with GraphPad Prism (GraphPad Software). Data were analyzed for significance using Student’s t test, one-way ANOVA with Tukey’s multiple comparisons test, and presented as mean ± SD. […] Statistical significance between experimental groups was determined using chi-square (χ²) tests within the ELDA framework. […]

HES1 mRNA = HES1 mRNA by RT-qPCR, VTC-001 GSCs; assay type: cell-based, human; conditions: 50 μM, 24 h, compared to antennapedia alone
Protocol: RNA was extracted using the PureLink^TM RNA mini extraction kit (Thermo Fisher) and on-column DNA digestion was completed using PureLink^TM DNase according to the manufacturer’s instructions. RNA was reverse transcribed to generate cDNA using the iScript^TM Reverse Transcription SuperMix for RT-qPCR kit (Bio-Rad Laboratories). Real-time PCR was performed using the SYBR select Master Mix for CFX (Thermo Fisher) in hard-shell 96-well PCR plates (Bio-Rad Laboratories) on a CFX Connect Real Time System (Bio-Rad Laboratories). Primer sequences used were: hNOTCH1_Fwd: 5’-CGCACAAGGTGTCTTCCAG-3’; hNOTCH1_Rev: 5’-CGGCGTGTGAGTTGATGA-3’; hHES1_Fwd: 5’-GGCTGGAGAGGCGGCTAA-3’; hHES1_Rev: 5’-[…]-3’; hHEY1_Fwd: 5’-[…]-3’; hHEY1_Rev: 5’-[…]-3’.

LN229/GSC tumor = LN229/GSC tumor growth in mouse flank; assay type: in vivo, mouse (BALB/c nude), human LN229/GSC cells
Excerpt: Animal studies were approved by the Institutional Animal Care and Use Committee (IACUC) of Virginia Tech. Female athymic nude mice (Envigo) aged 6-8 weeks were used for the maintenance and propagation of PDX GBM22 cells. PDX GBM22 tumors were maintained by serial passage in nude mouse flanks as described previously. Briefly, tumors were harvested 14–18 days post-injection and glioblastoma cells were mechanically and enzymatically dissociated. Cells were passed through a 40 µm filter and maintained as gliospheres in DMEM/F-12 without phenol red and with L-glutamine (Thermo Fisher), supplemented with 10 ng/ml fibroblast growth factor (Thermo Fisher), 10 ng/ml epidermal growth factor (Thermo Fisher), Gibco B-27 Supplement without vitamin A (Thermo Fisher), amphotericin (Fisher), and gentamycin (Fisher). The medium was changed daily for 2 days. […] After 2 days, tumors were measured and mice were randomly separated into three groups (7 mice per group), and vehicle/control (PBS), JM2-scrambled or JM2 were administered at 300 μM intratumorally every day for 14 days. Tumors were then measured by blinded investigators and harvested for analysis (see section below). Tumor volume was calculated using the formula (length × width^2)/2. […] After 7 days, tumors were measured and mice were randomly separated into three groups; vehicle/control (PBS), JM2-scrambled, and JM2 (3 mice per group). […] Tumor sizes were measured by electronic calipers at different times by blinded investigators, and tumor volume was calculated using the formula (length × width^2)/2.
as §2, with “Statistical analysis was conducted with GraphPad Prism (GraphPad Software).” left out

[1] = LN229/GSC model, 300 µM intratumorally every other day, first 31 days, n = 3

Sequence: VFFKGVKDRVKGRSD [JM2]
- GBM22-derived gliosphere size (diameter) (PDX GBM22 cells; n = 5): significantly decreases GBM22-derived gliosphere size
- GBM22-derived gliosphere number (PDX GBM22 cells; n = 6): significantly decreases GBM22-derived gliosphere size as assessed by diameter measurement (Fig. 8C), and number
- GSC frequency / self-renewal (limiting dilution) (VTC-037 GSCs): significant decrease in VTC-001, VTC-034, and VTC-037 GSC frequency
- Hes1 mRNA expression (HES1 mRNA): significantly decreased the expression of Notch downstream targets Hes1 and Hey1 at the transcription level
- Tumor growth, LN229/GSC model (LN229/GSC tumor; 300 μM intratumorally every other day, 24 days, after 33 days, n = 3 mice per group, compared to control or JM2-scrambled): significant decrease in tumor growth
- t(87) statistic, rate of tumor growth, JM2 vs Control (LN229/GSC tumor; [1]): -5.081
- t(87) statistic, rate of tumor growth, JM2 vs JM2-scrambled (LN229/GSC tumor; [1]): -3.873
